Reference: patent publication US9623109B2, “Methods of killing cells and use of same in prevention and treatment of cancer” (Yissum Research Development Company of the Hebrew …, priority 2008, dated 2017)

Legend:
CKIα KO mice = test: Sulindac feeding of CKIα knockout mice (gut phenotype, qRT-PCR, Western, IHC, SA-β-gal); type: in vivo, mouse
Method: Tamoxifen (Sigma) was dissolved in Corn Oil (Sigma) to a 20 mg/ml concentration. Mice at 2-3 months were injected subcutaneously with 2 mg Tamoxifen per injection, 5-7 injections every other day, over a 10-14 day period. Mice were sacrificed 4-5 days after the last injection. The colon and part of the small intestine were taken for histology, together with the stomach, liver, pancreas, spleen, kidney, heart and lung. Enterocytes (intestinal epithelial cells) were isolated from most of the small intestine. Enterocytes were used for RNA and protein assays.
All tissues were fixated in 4% formaldehyde for 24 hours, paraffin embedded and sectioned at 5 μm for hematoxylin/eosin (H&E) staining and immunohistochemistry. BrdU (Amersham) was injected intraperitonally at 100 μl/10 g body weight, 2 hours prior to sacrifice. The primary antibodies used were goat anti-CKIα (1:100; Santa Cruz), rabbit anti-Cleaved Caspase-3 (1:100; Cell Signaling), rabbit CM5 (anti-mouse p53) (1:400; Novocastra), mouse anti-β-catenin (1:200; BD transduction), mouse anti-BrdU (1:100; NeoMarkers), rabbit anti-Cyclin D1 (1:125; Lab Vision), mouse anti-p21 (1:50; Santa Cruz), mouse anti-γH2AX (Ser139) (1:100; Upstate), mouse anti-IL-8 (1:125; Bender), rabbit anti-Ki67 (1:300; NeoMarkers). The secondary antibodies used for immunohistochemistry were HRP-polymer anti-Rabbit and anti-Goat (Nichirei), HRP-polymer Mouse on Mouse kit (Nichirei), Mach2 anti mouse-HRP polymer (Biocare) and Mouse-Envision Plus (Dako). HRP was visualized with DAB chromogen (Thermo Scientific) and nuclear counterstain was hemotoxylin (BioOptica). The secondary antibody used for immunofluorescence was goat anti mouse Alexa-488 (1:1000; Molecular Probes). The nuclear counterstain used for immunofluorescence was Hoechst (1.5 μg/ml, Molecular Probes).
For enterocyte isolation, ˜⅔ of the small intestine was washed and minced into small pieces in PBS/1 mM DTT. Intestine was separated into single cells in Ca^2+, Mg^2+ free HBSS containing 10 mM HEPES, 5 mM EDTA and 0.5 mM DTT, at 37° C. for 30 minutes with slow agitation. Lysate was mixed vigorously and cell suspension was centrifuged. Cell pellets were frozen in liquid N2 and stored at −80° C. Protein was extracted from cell pellets in cell lysis buffer containing protease and phosphatase inhibitors. Primary antibodies used in Western blotting were goat-anti CKIα (1:100; Santa Cruz), mouse anti-CKIε (1:250; Santa Cruz), mouse anti-β-catenin (1:2500; BD transduction), rabbit anti-Phospho-β-catenin (Thr41/Ser45) (1:750, Cell Signaling), rabbit CM5 (anti-mouse p53) (1:400; Novocastra), mouse anti-human p53 (1:20; DO-1 hybridoma), rabbit anti-Phospho-p53 (Ser15) (1:1000; Cell Signaling), rabbit anti-Cyclin D1 (1:300; Lab Vision), rabbit anti-Cyclin D2 (1:1000; Santa Cruz), rabbit-anti Bax (1:200; Santa Cruz), mouse anti-MdmX (1:1000; Sigma), goat anti-MdmX (1:200; Santa Cruz), mouse anti-GSK3β (1:2500; BD transduction) rabbit anti-Cleaved Caspase-3 (1:1000; Cell Signaling), rabbit anti-PARP (1:1000; Cell Signaling), mouse anti-p21 (1:200; Santa Cruz), mouse anti-E2F1 (1:500, Santa Cruz), mouse anti-γH2AX (Ser139) (1:1000; Upstate), rabbit anti-Phospho-Chk2 (Thr68) (1:1000; Cell Signaling), rabbit anti-Hsp90 (1:5000; Calbiochem). Secondary antibodies used in Western blotting were HRP-conjugated, goat anti-rabbit, goat anti-mouse and rabbit anti-goat (1:10,000; Jackson). ECL (Amersham) was used for HRP detection. […]

[1] = tested on: RKO colorectal carcinoma cells; test: CKIδ/ε or CKIδ shRNA knockdown in RKO colorectal carcinoma cells (DNA damage response); type: cell-based; conditions: CKIδ depletion, human colorectal carcinoma cell line, FIG. 21
Method: FIG. 21 is a photograph illustrating the DNA damage response (DDR) upon CKIδ/ε ablation.
For enterocyte isolation, ˜⅔ of the small intestine was washed and minced into small pieces in PBS/1 mM DTT. Intestine was separated into single cells in Ca^2+, Mg^2+ free HBSS containing 10 mM HEPES, 5 mM EDTA and 0.5 mM DTT, at 37° C. for 30 minutes with slow agitation. Lysate was mixed vigorously and cell suspension was centrifuged. Cell pellets were frozen in liquid N2 and stored at −80° C. Protein was extracted from cell pellets in cell lysis buffer containing protease and phosphatase inhibitors. […]
RKO and HCT116 cells were cultured in Dulbecco's modified Eagle's medium, supplemented with 10% fetal calf serum (Sigma). […] CKIα expression levels were determined before each experiment to ensure adequate knockdown. […]

CKI-epsilon = CKI-epsilon (Homo sapiens, UniProt P49674); conditions: cited from earlier work
CKI-epsilon, sequence (P49674 whole entry): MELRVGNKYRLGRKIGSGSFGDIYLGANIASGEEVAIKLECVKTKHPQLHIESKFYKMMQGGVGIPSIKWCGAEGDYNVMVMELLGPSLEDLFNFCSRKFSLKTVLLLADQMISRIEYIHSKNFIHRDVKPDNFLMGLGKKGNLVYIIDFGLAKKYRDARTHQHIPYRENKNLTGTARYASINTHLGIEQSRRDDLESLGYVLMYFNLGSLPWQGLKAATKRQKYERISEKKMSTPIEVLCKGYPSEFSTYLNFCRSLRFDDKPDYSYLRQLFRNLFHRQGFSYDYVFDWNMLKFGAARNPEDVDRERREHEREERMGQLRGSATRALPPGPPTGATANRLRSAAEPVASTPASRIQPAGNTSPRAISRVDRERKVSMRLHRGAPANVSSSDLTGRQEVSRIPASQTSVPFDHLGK

CKI-delta = CKI-delta (Homo sapiens, UniProt P48730); conditions: cited from earlier work
CKI-delta, sequence (P48730 whole entry): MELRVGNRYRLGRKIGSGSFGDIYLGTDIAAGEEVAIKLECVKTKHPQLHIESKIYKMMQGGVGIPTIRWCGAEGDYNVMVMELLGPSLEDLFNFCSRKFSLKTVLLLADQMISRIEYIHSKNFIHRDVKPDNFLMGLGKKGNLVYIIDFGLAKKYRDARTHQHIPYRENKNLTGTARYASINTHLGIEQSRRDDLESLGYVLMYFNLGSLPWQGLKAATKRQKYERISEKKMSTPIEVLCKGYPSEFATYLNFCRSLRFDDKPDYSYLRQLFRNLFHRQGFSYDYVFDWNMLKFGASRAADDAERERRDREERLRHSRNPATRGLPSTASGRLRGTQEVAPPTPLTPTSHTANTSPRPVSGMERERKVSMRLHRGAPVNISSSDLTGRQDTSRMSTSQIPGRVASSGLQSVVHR

Q: For `CC1=C(CC(=O)O)c2cc(F)ccc2/C1=C\c1ccc([S+](C)[O-])cc1` (centres unmarked) [Sulindac], which “cell-non autonomous effects of CKIα deficiency” value (CKIα KO mice; CKIα KO mice, Sulindac in the drinking water, FIG. 14) is on record?
A: prevents

Q: And the “overall phenotype of the gut tissue: severity of dysplasia” value (CKIα KO mice; CKIα knockout mice fed Sulindac)?
A: greatly reduced

Q: What about the “markers for Wnt activation, inflammation, senescence and cell growth arrest, including CyclinD1, Troy, Cox2, SA-β-gal and p21” value (CKIα KO mice; CKIα knockout mice fed Sulindac for the duration of the experiment) of the same molecule?
A: significant reduction

Q: What about the “p53-independent senescence phenotype (SA β-gal) induced by CKIα deletion” value (CKIα KO mice; intestines of CKIα KO mice treated with Sulindac, FIG. 13) of the same molecule?
A: reversed

Q: And the “clusters of cells with high grade dysplasia in the villi” value (CKIα KO mice; sulindac fed CKIα KO mice, never found in control mutant mice)?
A: many clusters of cells were found with high grade dysplasia

Q: With “CKIδ shRNA: shRNA sequence for CKIδ alone (SEQ ID NO: 5), from Open Biosystems, cloned in pLKO vector (CCGGCCCATCGAAGTGTTGTGTAAACTCGAGTTTACACAACACTTCGATGGGTTTTT)” as the molecule, how does the p53 protein [1] read?
A: induced p53 stabilization

Q: Which results are given for `COc1cc(OC)c(C=C2C(O)=Nc3ccccc32)c(OC)c1` [IC261]?
A: inhibition of CKI-epsilon (CKI-epsilon): specific inhibitor; inhibition of CKI-delta (CKI-delta): specific inhibitor
